{"source": "patent US20240390434A1", "about": "“PROBIOTIC ENHANCERS AND USES THEREOF” (Blis Technologies Limited, priority 2021, published 2024)", "assay_in_all_cases": "Deferred antagonism assay, producer S. salivarius M18", "assay_type_in_all_cases": "cell-based", "key": {"S. constellatus T29": {"system": "S. constellatus T29", "settings": "Streptococcus constellatus, T29, M18, read-out: Size of zone inhibition normalised to control, S. constellatus T29", "method": "(§1) 1-2 producer strain colonies were transferred from a stock plate into 900 μL of suspension solution using a fresh cotton swab. Following this, suspensions were vortexed, and a sample was inoculated onto solid culture media using a fresh cotton swab. The inoculation was a streak that runs diametrically across the agar plate in a 1.5 cm wide strip. The plate was then incubated. Following incubation all visible colonies were removed by swabbing them from the agar surface. The plates were then treated with chloroform by dispensing 2 ml of chloroform onto 4 cm×4 cm piece of cloth and sealing the inverted agar plate on top for 30 minutes. The plates were then air dried for 30 minutes following chloroforming. 1-2 indicator strain colonies were then transferred from a stock plate into complementary suspension solution. The suspensions were then vortexed, and a sample was inoculated onto the same agar surface. These samples were streaked in a perpendicular direction to the initial producer streak.\n(§2) Each indicator streak was prepared with fresh a suspension containing cells from a corresponding stock plate containing the indicator strain of interest. Indicator strains suspension samples were transferred using a fresh cotton swab. Results were measured by qualitatively reviewing the subsequent (if any) sizes of the zones of inhibition (ZOI) of indicator strain colony growth. A positive result is when there is a distinctive reduction or complete inhibition of indicator colony growth on the culture medium.\n(§3) CABCa agar plates containing various concentrations of saccharide were prepared according to the methods described in Method 1. Producer strains were transferred from stock agar plates into 900 μL THB using a fresh cotton swab. A plastic spread plater was cut to approximately 1.2 cm width and then dipped into ethanol and left to air dry to ensure sterility. A 100 μL sample of the producer strain suspension was then dispensed onto the agar surface in a straight line running diametrically across the agar surface in (approximately) 20 μL spots. The spots were spaced approximately 1.5 cm apart from each other. The plastic spreader was then used to evenly distribute the spots across the agar surface in a 1.5 cm wide strip. This step was taken to ensure an even producer streak was inoculated onto the agar surface and provided an approximate measure of the initial inoculum concentration. Separate plastic spreaders were used for samples containing different producer strains. The samples were left to soak into the agar surface until there was no visible liquid remaining on the agar surface (approximately 20 minutes). Following producer streak preparations, the deferred antagonism assay protocol was followed as per Method 2. Results were recorded by measuring the size of the zone of inhibition (ZOI) in mm.\n(§4) A dose response assay was carried out according to method 3 above, except a 1.2 cm streak was used. For the individual saccharide testing the pH of the producer streak was adjusted after the growth of producer to change the acidic conditions.\n(§5) A deferred antagonism assay was conducted using K12 or M18 raw ingredient suspended in Todd Hewitt broth (THB). This was spread as a 1.2 cm streak containing approximately 1-2×10^6 cfu down the middle of a CABCa control or CABCa galactose supplemented test plate. After 18 hrs growth at 37° C. with 5% CO2, bacterial growth was removed, and the pH of the agar in the initial streak was measured and adjusted to a pH of 6.5-7.5 using 0.5M sodium carbonate pH11 before sterilizing the agar surface using chloroform vapor. Bacterial test strains were suspended in i-THB before being swabbed across the plates perpendicular to the initial streak. Plates were incubated for a further 18 hrs incubation at 37° C. with 5% CO2 before measuring (mm) any zones of inhibition for each test strain, […]"}, "S. aureus A222": {"system": "S. aureus A222", "settings": "Staphylococcus aureus, A222, M18, read-out: Size of zone inhibition normalised to control, S. aureus A222", "method": "as §1, §2, §3, §4, §5"}, "S. pyogenes 71-698": {"system": "S. pyogenes 71-698", "settings": "Streptococcus pyogenes, 71698, M18, read-out: Size of zone inhibition normalised to control, S. pyogenes 71-698", "method": "as §1, §2, §3, §4, §5"}, "S. mutans OMZ175": {"system": "S. mutans OMZ175", "settings": "Streptococcus mutans, OMZ175, M18, read-out: Size of zone inhibition normalised to control, S. mutans OMZ175", "method": "as §1, §2, §3, §4, §5"}, "S. pneumoniae D39": {"system": "S. pneumoniae D39", "settings": "Streptococcus pneumoniae, D39, M18, read-out: Size of zone inhibition normalised to control, S. pneumoniae D39", "method": "as §1, §2, §3, §4, §5"}, "[1]": {"system": "S. saprophyticus ATCC 15305", "settings": "Staphylococcus saprophyticus, ATCC15305, M18, read-out: Size of zone inhibition normalised to control, S. saprophyticus ATCC 15305", "method": "as §1, §2, §3, §4, §5"}}, "data": [{"smiles": "O=C[C@H](O)[C@@H](O)[C@@H](O)[C@H](O)CO", "note": "[Galactose, D-galactose]", "values": [{"measurement": "zone of inhibition at 0.5 % strength", "setting": "S. constellatus T29; Galactose 0.5% w/w", "value": 0, "unit": "mm"}, {"measurement": "zone of inhibition at 1.25 % strength", "setting": "S. constellatus T29; Galactose 1.25% w/w", "value": 8, "unit": "mm"}, {"measurement": "zone of inhibition at 1.7 % strength", "setting": "S. constellatus T29; Galactose 1.7% w/w", "value": 0, "unit": "mm"}, {"measurement": "zone of inhibition at 2.5 % strength", "setting": "S. constellatus T29; Galactose 2.5% w/w", "value": 16, "unit": "mm"}, {"measurement": "zone of inhibition at 3.3 % strength", "setting": "S. constellatus T29; Galactose 3.3% w/w", "value": 22, "unit": "mm"}, {"measurement": "zone of inhibition at 5 % strength", "setting": "S. constellatus T29; Galactose 5% w/w", "value": 17, "unit": "mm"}, {"measurement": "zone of inhibition at 0.5 % strength", "setting": "S. aureus A222; Galactose 0.5% w/w", "value": 10, "unit": "mm"}, {"measurement": "zone of inhibition at 1.25 % strength", "setting": "S. aureus A222; Galactose 1.25% w/w", "value": 6, "unit": "mm"}, {"measurement": "zone of inhibition at 1.7 % strength", "setting": "S. aureus A222; Galactose 1.7% w/w", "value": 0, "unit": "mm"}, {"measurement": "zone of inhibition at 2.5 % strength", "setting": "S. aureus A222; Galactose 2.5% w/w", "value": 0, "unit": "mm"}, {"measurement": "zone of inhibition at 3.3 % strength", "setting": "S. aureus A222; Galactose 3.3% w/w", "value": 6, "unit": "mm"}, {"measurement": "zone of inhibition at 5 % strength", "setting": "S. aureus A222; Galactose 5% w/w", "value": 0, "unit": "mm"}, {"measurement": "zone of inhibition at 0.5 % strength", "setting": "S. pyogenes 71-698; Galactose 0.5% w/w", "value": 19.5, "unit": "mm"}, {"measurement": "zone of inhibition at 1.25 % strength", "setting": "S. pyogenes 71-698; Galactose 1.25% w/w", "value": 13.5, "unit": "mm"}, {"measurement": "zone of inhibition at 1.7 % strength", "setting": "S. pyogenes 71-698; Galactose 1.7% w/w", "value": 9.5, "unit": "mm"}, {"measurement": "zone of inhibition at 2.5 % strength", "setting": "S. pyogenes 71-698; Galactose 2.5% w/w", "value": 16.5, "unit": "mm"}, {"measurement": "zone of inhibition at 3.3 % strength", "setting": "S. pyogenes 71-698; Galactose 3.3% w/w", "value": 9.5, "unit": "mm"}, {"measurement": "zone of inhibition at 5 % strength", "setting": "S. pyogenes 71-698; Galactose 5% w/w", "value": 9.5, "unit": "mm"}, {"measurement": "zone of inhibition at 0.5 % strength", "setting": "S. mutans OMZ175; Galactose 0.5% w/w", "value": 16, "unit": "mm"}, {"measurement": "zone of inhibition at 1.25 % strength", "setting": "S. mutans OMZ175; Galactose 1.25% w/w", "value": 0, "unit": "mm"}, {"measurement": "zone of inhibition at 1.7 % strength", "setting": "S. mutans OMZ175; Galactose 1.7% w/w", "value": 0, "unit": "mm"}, {"measurement": "zone of inhibition at 2.5 % strength", "setting": "S. mutans OMZ175; Galactose 2.5% w/w", "value": 0, "unit": "mm"}, {"measurement": "zone of inhibition at 3.3 % strength", "setting": "S. mutans OMZ175; Galactose 3.3% w/w", "value": 6, "unit": "mm"}, {"measurement": "zone of inhibition at 5 % strength", "setting": "S. mutans OMZ175; Galactose 5% w/w", "value": 0, "unit": "mm"}, {"measurement": "zone of inhibition at 0.5 % strength", "setting": "S. pneumoniae D39; Galactose 0.5% w/w", "value": 8, "unit": "mm"}, {"measurement": "zone of inhibition at 1.25 % strength", "setting": "S. pneumoniae D39; Galactose 1.25% w/w", "value": 5, "unit": "mm"}, {"measurement": "zone of inhibition at 1.7 % strength", "setting": "S. pneumoniae D39; Galactose 1.7% w/w", "value": 0, "unit": "mm"}, {"measurement": "zone of inhibition at 2.5 % strength", "setting": "S. pneumoniae D39; Galactose 2.5% w/w", "value": 6, "unit": "mm"}, {"measurement": "zone of inhibition at 3.3 % strength", "setting": "S. pneumoniae D39; Galactose 3.3% w/w", "value": 2, "unit": "mm"}, {"measurement": "zone of inhibition at 5 % strength", "setting": "S. pneumoniae D39; Galactose 5% w/w", "value": 0, "unit": "mm"}, {"measurement": "zone of inhibition at 0.5 % strength", "setting": "[1]; Galactose 0.5% w/w", "value": 5, "unit": "mm"}, {"measurement": "zone of inhibition at 1.25 % strength", "setting": "[1]; Galactose 1.25% w/w", "value": 0, "unit": "mm"}, {"measurement": "zone of inhibition at 1.7 % strength", "setting": "[1]; Galactose 1.7% w/w", "value": 0, "unit": "mm"}, {"measurement": "zone of inhibition at 2.5 % strength", "setting": "[1]; Galactose 2.5% w/w", "value": 0, "unit": "mm"}, {"measurement": "zone of inhibition at 3.3 % strength", "setting": "[1]; Galactose 3.3% w/w", "value": 0, "unit": "mm"}, {"measurement": "zone of inhibition at 5 % strength", "setting": "[1]; Galactose 5% w/w", "value": 0, "unit": "mm"}]}]}
